Earlier results on three compounds are cited in US20080081070A1, “PHARMACEUTICAL FORMULATION WITH ENHANCED SOLUBILITY FOR THE DELIVERY OF CORTICOSTEROIDS” (priority 2006, published 2008).

Converted amounts (≈) assume the structure as drawn.

The test system of data set [1] is mild and moderately active Crohn's disease.
Experiment in data set [2]: not given
This is another data set of the same source.

The conditions of data set [3]: animal studies.
[4] abbreviates: oral dosing of radiolabeled drug, humans.

`CCC(=O)O[C@]1(C(=O)SCF)[C@H](C)C[C@H]2[C@@H]3C[C@H](F)C4=CC(=O)C=C[C@]4(C)[C@@]3(F)[C@@H](O)C[C@@]21C` [Fluticasone propionate, S-fluoromethyl-6-α-9-difluoro-11-β-hydroxy-16-α-methyl-3-oxoandrosta-1,4-diene-17-β-carbothioate, 17-propionate]: the total blood clearance (average, predominantly through the liver) was 1,093 mL/min. Further, under setting [4], the absorption entry is recorded as “low”, the extraction from plasma result is listed as “highly extracted” and the “oral bioavailability” value is recorded as “negligible”. In data set [1] (after three weeks oral treatment, before treatment 28 (21%), p less than 0.05), the “excretion of injected radioactivity calculated from whole body data” value was 1.4 (0.7%). Moreover, in data set [1] (three weeks oral treatment), the plasma cortisol values result is listed as “no changes”. In data set [1] (three weeks oral treatment, twelve patients), the leucocyte scan images entry is recorded as “improved (seven patients) or unchanged (five patients)”. Moreover, the “solubility in 95% ethanol” value in data set [2] (95% ethanol) is reported as “slightly soluble”. Besides, the “solubility in dimethyl sulfoxide” value in data set [2] (dimethyl sulfoxide) is given as “freely soluble”. The solubility in dimethyl-formamide result in data set [2] (dimethyl-formamide) is “freely soluble”. Besides, in data set [2] (methanol), the solubility in methanol result is reported as “slightly soluble”. In data set [2] (water), the solubility in water is 0.14 µg/mL (≈ 0.28 µM).

`CCC(=O)O[C@]1(C(=O)O)[C@H](C)C[C@H]2[C@@H]3C[C@H](F)C4=CC(=O)C=C[C@]4(C)[C@@]3(F)[C@@H](O)C[C@@]21C` [17-β-carboxylic acid]: the pharmacologic activity result in data set [3] is “negligible”.

For `CCCC1O[C@@H]2C[C@H]3[C@@H]4CCC5=CC(=O)C=C[C@]5(C)[C@H]4[C@@H](O)C[C@]3(C)[C@]2(C(=O)CO)O1` (stereo partly shown) [budesonide], in the data set with Crohn's disease (clinical studies), the “clinical features of hypercortisolism compared with prednisone” value was “fewer” and the “likelihood of maintaining a normal plasma cortisol level compared with prednisone” value is reported as “greater likelihood”. For the same compound, the “bone mineral density compared with prednisone” value in the data set on Crohn's disease (two-year study) is “decreased less”.
